In patent publication US20020071842A1, “Soluble CD1 compositions and uses thereof” (priority 2000, published 2002):

Test system: α-GalCer reactive NKT cell hybridomas
Experiment: Plate-bound mCD1d fusion protein hybridoma stimulation assay, hybridoma panel
Format: cell-based, mouse
Settings: some of the α-GalCer reactive NKT cell hybridomas
From the text: Our observation that two NKT cell hybridomas, 24.8.A and 24.9.E, differed in their antigen reactivity, raised the possibility that NKT cells may have heterogeneous antigen specificities. To extend our analysis of NKT cells, and to compare antigen recognition by mCD1d-restricted T cells of the diverse TCR population, we tested 9 NKT and 8 diverse TCR mCD1d-restricted hybridomas for recognition of 14 purified and synthetic lipid antigens (see Tables 1 and 2). None of the hybridomas produced detectable IL-2 in response to a negative control protein, and only the 24.8.A hybridoma secreted detectable IL-2 in response to untreated mCD1d fusion protein (Table 2). Eight out of nine NKT cell hybridomas were potently stimulated by α-GalCer treated fusion protein, whereas none of the diverse TCR hybridomas reproducibly recognized this antigen (Table 2). […]
IL-2 secreted in the hybridoma stimulation assays was quantitated in a double antibody sandwich ELISA, by comparison to a standard curve of purified murine IL-2 (Pharmingen, San Diego, Calif.). […] IL-2 was detected by addition of a biotinylated rat anti-mouse IL-2 antibody, followed by addition of a streptavidin-alkaline phophatase conjugate, and a chromogenic substrate. The pg/ml of IL-2 present in the hybridoma supernatants was quantitated by linear regression of the IL-2 standard curve.

phosphatidylinositol [PI]
activity relative to synthetic α-GalCer: 10-20%
